Test results reported in ChEMBL document CHEMBL1201862, “PubChem BioAssay data set” (2004).
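Cells were grown in 96-well plates and exposed to each compound for 48 hours at five concentrations; endpoints were interpolated linearly between bracketing concentrations, or set to the highest concentration if not reached. At the GI50, growth is halved.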 Activity calls are given as the source filed them. Rule as the data show it: active = GI50 up to about 1.1 µM and inactive = higher.

Tests used:
Test in all cases: NCI anticancer screen, dose series, 48 h
SK-MEL-5 = test system: SK-MEL-5
OVCAR-8 = test system: OVCAR-8
LOX IMVI = test system: LOX IMVI
HCT-116 = test system: HCT-116
CAKI-1 = test system: CAKI-1
IGROV-1 = test system: IGROV-1
NCI-H226 = test system: NCI-H226
SW-620 = test system: SW-620
ACHN = test system: ACHN
CCRF-CEM = test system: CCRF-CEM
SF-295 = test system: SF-295
SK-MEL-2 = test system: SK-MEL-2
SNB-75 = test system: SNB-75
RXF 393 = test system: RXF 393
M14 = test system: M14
NCI-H522 = test system: NCI-H522
SN12C = test system: SN12C

Measured: GI50

OC1C2CCC1C1C3C=CC(C3)C21 (configuration not stated)
inactive: SK-MEL-5 87.3 µM | OVCAR-8 > 100 µM | LOX IMVI 86.5 µM | HCT-116 79.4 µM | CAKI-1 64.9 µM | IGROV-1 > 100 µM | NCI-H226 58.5 µM | SW-620 > 100 µM | ACHN 95.9 µM | CCRF-CEM 39.6 µM | SF-295 61.5 µM | SK-MEL-2 32.8 µM | SNB-75 46.6 µM | RXF 393 47 µM | M14 > 100 µM | NCI-H522 50.9 µM

COC(=O)c1c2c(cc3c1CC1(Cc4cc5c(c(C(C)=O)c4C1)CCC5)C3)CCC2 (configuration not stated)
inactive: SK-MEL-5 31.8 µM | OVCAR-8 54.5 µM | LOX IMVI 50.1 µM | HCT-116 28.6 µM | CAKI-1 34.2 µM | SN12C 91.8 µM | IGROV-1 72.8 µM | SW-620 > 100 µM | ACHN 40 µM | CCRF-CEM > 100 µM | SF-295 28.8 µM | SNB-75 24.6 µM | RXF 393 20.2 µM | M14 > 100 µM | NCI-H522 17 µM

Cn1nc(-c2ccccc2NC(=O)C(F)(F)F)c(=O)n(C)c1=S
inactive: SK-MEL-5 > 100 µM | OVCAR-8 23.9 µM | LOX IMVI 29.9 µM | HCT-116 38.1 µM | CAKI-1 33.6 µM | SN12C 42.3 µM | IGROV-1 63.2 µM | NCI-H226 38.5 µM | SW-620 34.5 µM | ACHN 24.5 µM | CCRF-CEM 32.6 µM | SF-295 58.2 µM | SK-MEL-2 26.7 µM | SNB-75 5.89 µM | RXF 393 39.9 µM | M14 19.8 µM | NCI-H522 19.3 µM

NC(=O)/C=C/C(=O)O
inactive: SK-MEL-5 > 5000 µM | OVCAR-8 > 5000 µM | LOX IMVI > 5000 µM | HCT-116 > 5000 µM | SN12C > 5000 µM | IGROV-1 > 5000 µM | NCI-H226 > 5000 µM | SW-620 > 5000 µM | ACHN > 5000 µM | CCRF-CEM > 5000 µM | SF-295 > 5000 µM | SK-MEL-2 > 5000 µM | SNB-75 > 5000 µM | RXF 393 > 5000 µM | M14 > 5000 µM | NCI-H522 > 5000 µM

CC(=O)CN(Cc1cc(C)c2c(c1)c1ccccc1n2Cc1ccccc1)S(=O)(=O)c1ccc(C)cc1
inactive: SK-MEL-5 > 100 µM | OVCAR-8 > 100 µM | HCT-116 > 100 µM | CAKI-1 > 100 µM | IGROV-1 > 100 µM | NCI-H226 > 100 µM | SW-620 > 100 µM | CCRF-CEM > 100 µM | SF-295 > 100 µM | SK-MEL-2 > 100 µM | SNB-75 > 100 µM | M14 > 100 µM | NCI-H522 > 100 µM
